Assay results taken from US20040001827A1, “Serum albumin binding peptides for tumor targeting” (priority 2002, published 2004).
Like-named read-outs stand apart in the source and are kept apart here. Where a SMILES comes first, the peptide text is derived from it. Bridges are numbered along the chain shown (N, C = ends).

Target: T1, rabbit albumin (Oryctolagus cuniculus, UniProt P49065)
T1 construct: purchased Sigma, St. Louis Mo
Assay: SA08b binding (peptide competition) assay, rabbit albumin
Details: for improvement in IC50 relative to core sequence (SA34 and SA19): rabbit albumin
Text: Plates were blocked as described above.
Peptides corresponding to identified phage sequences were synthesized and their affinity for rat, rabbit or mouse albumin measured using the SA08b binding assay.

T1 sequence (P49065 25-608): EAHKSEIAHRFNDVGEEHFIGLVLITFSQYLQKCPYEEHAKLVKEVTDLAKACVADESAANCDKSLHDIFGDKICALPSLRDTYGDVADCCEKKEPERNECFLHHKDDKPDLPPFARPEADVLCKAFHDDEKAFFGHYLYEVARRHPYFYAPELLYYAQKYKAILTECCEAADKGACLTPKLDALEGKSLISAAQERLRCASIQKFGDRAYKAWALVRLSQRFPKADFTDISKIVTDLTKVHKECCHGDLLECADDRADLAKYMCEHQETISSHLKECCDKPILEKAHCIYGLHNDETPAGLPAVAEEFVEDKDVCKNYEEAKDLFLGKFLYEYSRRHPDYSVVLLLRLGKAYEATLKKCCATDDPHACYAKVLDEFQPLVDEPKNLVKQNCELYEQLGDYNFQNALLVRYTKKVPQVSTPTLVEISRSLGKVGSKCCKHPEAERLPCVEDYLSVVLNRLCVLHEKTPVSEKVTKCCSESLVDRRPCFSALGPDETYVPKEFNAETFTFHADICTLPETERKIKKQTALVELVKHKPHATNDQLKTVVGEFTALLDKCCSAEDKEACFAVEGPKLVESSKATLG

CC[C@H](C)[C@H](NC(=O)[C@H](CC(C)C)NC(=O)[C@H](CCCNC(=N)N)NC(C)=O)C(=O)N[C@@H](CCC(=O)O)C(=O)N[C@@H](CC(=O)O)C(=O)N[C@H](C(=O)N[C@H]1CSSC[C@@H](C(=O)N[C@@H](CC(C)C)C(N)=O)NC(=O)CNC(=O)[C@H](Cc2c[nH]c3ccccc23)NC(=O)[C@H](CCCNC(=N)N)NC(=O)[C@@H]2CCCN2C(=O)[C@H](CC(C)C)NC1=O)[C@@H](C)CC [SA33] (Ac-RLIEDICLPRWGCL-NH2; disulfide 7-13)
improvement in IC50 relative to core sequence (SA34 and SA19): approximately 6 fold

CC[C@H](C)[C@H](NC(C)=O)C(=O)N[C@H]1CSSC[C@@H](C(N)=O)NC(=O)CNC(=O)[C@H](Cc2c[nH]c3ccccc23)NC(=O)[C@H](CCCNC(=N)N)NC(=O)[C@@H]2CCCN2C(=O)[C@H](CC(C)C)NC1=O [SA36] (Ac-ICLPRWGC-NH2; disulfide 2-8)
IC50 (Table 9, rabbit albumin, peptide truncation series, read-out: IC50): > 250 µM

CC(=O)N[C@H]1CSSC[C@@H](C(=O)N[C@@H](CC(C)C)C(=O)N[C@@H](Cc2c[nH]c3ccccc23)C(=O)N[C@@H](CCC(=O)O)C(=O)N[C@@H](CC(=O)O)C(N)=O)NC(=O)CNC(=O)[C@H](Cc2c[nH]c3ccccc23)NC(=O)[C@H](CCCNC(=N)N)NC(=O)[C@@H]2CCCN2C(=O)[C@H](CC(C)C)NC1=O [SA28] (Ac-CLPRWGCLWED-NH2; disulfide 1-7)
IC50: > 400 µM

CC[C@H](C)[C@H](NC(=O)[C@H](CC(=O)O)NC(C)=O)C(=O)N[C@H]1CSSC[C@@H](C(=O)N[C@@H](CC(C)C)C(=O)N[C@@H](Cc2c[nH]c3ccccc23)C(=O)N[C@@H](CCC(=O)O)C(=O)N[C@@H](CC(=O)O)C(N)=O)NC(=O)CNC(=O)[C@H](Cc2c[nH]c3ccccc23)NC(=O)[C@H](CCCNC(=N)N)NC(=O)[C@@H]2CCCN2C(=O)[C@H](CC(C)C)NC1=O [SA26] (Ac-DICLPRWGCLWED-NH2; disulfide 3-9)
improvement in IC50 relative to core sequence (SA34 and SA19): about 8.6 fold

CC[C@H](C)[C@H](NC(=O)[C@H](CC(=O)O)NC(C)=O)C(=O)N[C@H]1CSSC[C@@H](C(=O)N[C@@H](CC(C)C)C(N)=O)NC(=O)CNC(=O)[C@H](Cc2c[nH]c3ccccc23)NC(=O)[C@H](CCCNC(=N)N)NC(=O)[C@@H]2CCCN2C(=O)[C@H](CC(C)C)NC1=O [SA34] (Ac-DICLPRWGCL-NH2; disulfide 3-9)
IC50: ~25 µM

CC[C@H](C)[C@H](NC(=O)[C@H](CC(C)C)NC(=O)[C@H](CCCNC(=N)N)NC(C)=O)C(=O)N[C@@H](CCC(=O)O)C(=O)N[C@@H](CC(=O)O)C(=O)N[C@H](C(=O)N[C@H]1CSSC[C@@H](C(=O)N[C@@H](CC(C)C)C(=O)N[C@@H](Cc2c[nH]c3ccccc23)C(=O)N[C@@H](CCC(=O)O)C(=O)N[C@@H](CC(=O)O)C(N)=O)NC(=O)CNC(=O)[C@H](Cc2c[nH]c3ccccc23)NC(=O)[C@H](CCCNC(=N)N)NC(=O)[C@@H]2CCCN2C(=O)[C@H](CC(C)C)NC1=O)[C@@H](C)CC [SA22] (Ac-RLIEDICLPRWGCLWED-NH2; disulfide 7-13)
improvement in IC50 relative to core sequence (SA34 and SA19): 60 fold
